In patent US9125913B2, “Bcl-2-selective apoptosis-inducing agents for the treatment of cancer and immune diseases” (AbbVie Inc., priority 2008, dated 2015):

What was measured:
[1] = tested on: GST-Bcl-2; assay: TR-FRET binding assay, Bcl-2; conditions: TR-FRET Ki values
Summary of the method: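 Compounds serially diluted in DMSO from 50 μM (2× starting concentration, 10% DMSO), mixed with GST-tagged protein, F-Bak peptide probe and Tb-labeled antibody, incubated 3 h at room temperature.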

[2] = tested on: FL5.12/Bcl-2 cells; assay: FL5.12/Bcl-2 cell viability assay; format: cell-based, murine; conditions: ratio of canine platelet EC50 to FL5.12/Bcl-2 EC50
Summary of the method: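 Viability measured with CellTiter-Glo after 24 h compound treatment at various concentrations, following 48 h IL-3 withdrawal (no WEHI-3B medium). Cells: prolymphocytic mouse FL5.12 line stably transfected to overexpress Bcl-2, cultured at 37 °C, 5% CO2.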

| Compound | Binding selectivity ratio (Bcl-XL Ki/Bcl-2 Ki) [1] | Selectivity Ratio (Platelet EC50/FL5.12/Bcl-2 EC50) [2] |
| --- | --- | --- |
| CN(C)CCOc1ccc(-c2ccc(Cl)cc2)c(CN2CCN(c3ccc(C(=O)NS(=O)(=O)c4ccc(NCC5CCOCC5)c(S(=O)(=O)C(F)(F)F)c4)c(Oc4ccccc4)c3)CC2)c1 [Example 120, 4-[4-({4′-chloro-4-[2-(dimethylamino)ethoxy]-1,1′-biphenyl-2-yl}methyl)piperazin-1-yl]-2-phenoxy-N-({4-[(tetrahydro-2H-pyran-4-ylmethyl)amino]-3-[(trifluoromethyl)sulfonyl]phenyl}sulfonyl)benzamide] | 224.8 | >157 |
| CN(C)CCOc1ccc(-c2ccc(Cl)cc2)c(CN2CCN(c3ccc(C(=O)NS(=O)(=O)c4ccc(NCCCN5CCCC5)c([N+](=O)[O-])c4)c(Oc4ccccc4)c3)CC2)c1 [Example 121, 4-[4-({4′-chloro-4-[2-(dimethylamino)ethoxy]-1,1′-biphenyl-2-yl}methyl)piperazin-1-yl]-N-({3-nitro-4-[(3-pyrrolidin-1-ylpropyl)amino]phenyl}sulfonyl)-2-phenoxybenzamide] | 388 | 8 |
| CN(C)CCOc1cccc(-c2ccc(Cl)cc2)c1CN1CCN(c2ccc(C(=O)NS(=O)(=O)c3ccc(NCC4CCOCC4)c([N+](=O)[O-])c3)c(Oc3ccccc3)c2)CC1 [Example 122, 4-[4-({4′-chloro-3-[2-(dimethylamino)ethoxy]-1,1′-biphenyl-2-yl}methyl)piperazin-1-yl]-N-({3-nitro-4-[(tetrahydro-2H-pyran-4-ylmethyl)amino]phenyl}sulfonyl)-2-phenoxybenzamide] | 209.4 | >1259 |
| CN(C)CCOc1cccc(-c2ccc(Cl)cc2)c1CN1CCN(c2ccc(C(=O)NS(=O)(=O)c3ccc(NCCCN4CCCC4)c([N+](=O)[O-])c3)c(Oc3ccccc3)c2)CC1 [Example 123, 4-[4-({4′-chloro-3-[2-(dimethylamino)ethoxy]-1,1′-biphenyl-2-yl}methyl)piperazin-1-yl]-N-({3-nitro-4-[(3-pyrrolidin-1-ylpropyl)amino]phenyl}sulfonyl)-2-phenoxybenzamide] | 91.5 | 32 |
| CN(C)CCOc1ccc(-c2ccc(Cl)cc2)c(CN2CCN(c3ccc(C(=O)NS(=O)(=O)c4ccc(NCC5CCOCC5)c([N+](=O)[O-])c4)c(Oc4cccc5[nH]ccc45)c3)CC2)c1 [Example 125, 4-[4-({4′-chloro-4-[2-(dimethylamino)ethoxy]-1,1′-biphenyl-2-yl}methyl)piperazin-1-yl]-2-(1H-indol-4-yloxy)-N-({3-nitro-4-[(tetrahydro-2H-pyran-4-ylmethyl)amino]phenyl}sulfonyl)benzamide] | 3879 | 4719 |
| CN(C)CCOc1ccc(-c2ccc(Cl)cc2)c(CN2CCN(c3ccc(C(=O)NS(=O)(=O)c4ccc(NCC5CCOCC5)c([N+](=O)[O-])c4)c(Oc4ccc5[nH]ccc5c4)c3)CC2)c1 [Example 126, 4-[4-({4′-chloro-4-[2-(dimethylamino)ethoxy]-1,1′-biphenyl-2-yl}methyl)piperazin-1-yl]-2-(1H-indol-5-yloxy)-N-({3-nitro-4-[(tetrahydro-2H-pyran-4-ylmethyl)amino]phenyl}sulfonyl)benzamide] | 13575 | >1618 |
| CN(C)CCOc1cccc(-c2ccc(Cl)cc2)c1CN1CCN(c2ccc(C(=O)NS(=O)(=O)c3ccc(NCC4CCOCC4)c([N+](=O)[O-])c3)c(Oc3cccc4[nH]ccc34)c2)CC1 [Example 128, 4-[4-({4′-chloro-3-[2-(dimethylamino)ethoxy]-1,1′-biphenyl-2-yl}methyl)piperazin-1-yl]-2-(1H-indol-4-yloxy)-N-({3-nitro-4-[(tetrahydro-2H-pyran-4-ylmethyl)amino]phenyl}sulfonyl)benzamide] | 7117.6 | >2000 |
